Experimental data: patent US8410049B2, “Methods and kits for preventing hypoglycemia” (Cebix, priority 2009, dated 2013)

Tests used:
C-peptide antibodies = assay: Antibody formation against C-peptide, ELISA; assay type: in vivo, human; settings: baseline and after 3 and 6 months of C-peptide treatment
From the text: C-peptide plasma samples, C-peptide antibodies, and markers for atherosclerosis were processed (centrifuged, etc.) and stored frozen until transport to a central lab. HLA typing samples were shipped to a central lab for processing and storage until analysis. All samples there were labelled uniquely, including information about screening number and sample time.
Samples for the assessment of antibody formation were collected at baseline and at visits 2 and 4. An appropriate enzyme-linked immunoabsorbant assay (ELISA) method was developed and assessments carried out.

[1] = Bioavailability and expected plasma concentration of subcutaneously administered C-peptide; assay type: in vivo, human; settings: low dose 500 nmoL/24 h given 4 times daily
Method: The dose selection is based on data from previous studies, in which C-peptide has been replaced for 3 months (600 nmoL/24 h) and an effect on albumin excretion and sensory nerve conduction velocity has been observed (Johansson et al., 2000; Ekberg et al., 2003). In order to maintain adequate levels of C-peptide for as many hours of the day as possible, the daily dose was divided into four doses, injected subcutaneously using Disetronic Pen 25, and administered in the morning, at lunch, at dinner, and at bedtime. […] To determine if C-peptide at a higher dose has an optimal effect, a 3 times higher dose (1,500 nmoL/24 h) was also administered.
The low-dose regimen was expected to give a mean physiological plasma concentration of ˜1 nmoL/L during the 24 h period. The high dose regimen was expected to result in concentrations ˜3 times those of the low dose regimen. The actual exposure is described in section above on “C-peptide concentrations”. […] The sampling of C-peptide in plasma at visits 2 and 4 coincided with the clinical visit and the time between the most recent administration of the trial drug and sampling varied between patients. Thereby, the results of C-peptide concentrations in plasma became less suitable for pharmacokinetic evaluations.

[2] = C-peptide plasma levels, time-resolved fluoroimmunoassay; assay type: in vivo, human; settings: for Increase in pre-dosing morning C-peptide plasma level vs baseline: 4.5 months (visit 3)
Method: The sampling of C-peptide in plasma at visits 2 and 4 coincided with the clinical visit and the time between the most recent administration of the trial drug and sampling varied between patients. Thereby, the result of C-peptide concentrations in plasma was less suitable for pharmacokinetic evaluations, but the results contributed to the assessment of treatment compliance. C-peptide plasma levels were measured at baseline, and after 3 and 6 months of treatment. Analysis was performed by the Department of Clinical Chemistry Karolinska University Hospital, Solna using a time-resolved fluoroimmunoassay (AutoDelfia, Wallac Oy, Turku, Finland). […] The plasma levels of C-peptide attained in this study ranged from about 0.2 nM to a maximum of about 6 nM in the high dose group.

[3] = test system: type 1 diabetes patients with peripheral neuropathy; assay: Clinical laboratory evaluation: hematology, clinical chemistries, urinalysis; assay type: in vivo, human; settings: following the study treatment
From the text: Before starting the study, the investigator supplied the Sponsor with a list of the normal laboratory ranges and units of measurement for the laboratory variables to be determined during the study at the site. All abnormal laboratory (those out of the normal range) values required comments on the CRF, regardless of the clinical significance: • Error—Include improper sample preparation, hemolysis, delayed transit to laboratory, etc. • Not relevant—Abnormality that was not alarming. • Patient condition—Abnormality that was a consequence of the patient's disease, age, etc. • Adverse event—Clinically relevant abnormal value that cannot be explained by the above assessment flags. Adverse Event/Serious Adverse Event CRF was filled in.
Descriptive statistics were used for safety variables.

[4] = test system: type 1 diabetes patients with peripheral neuropathy; assay: Adverse events incl. severe hypoglycemic events and hypoglycemic coma; settings: for AEs of any severity: Tooth ache: Gastrointestinal Disorders
[5] = test system: type 1 diabetes patients with peripheral neuropathy; assay: ECG and vital signs; assay type: in vivo, human; settings: for BPd (diastolic blood pressure), change from baseline to 6 months treatment (visit 4), Mean ± SD / BPd (diastolic blood pressure), change from baseline to 6 months treatment (visit 4), Median / BPs (systolic blood pressure), change from baseline to 6 months treatment (visit 4), Mean ± SD / BPs (systolic blood pressure), change from baseline to 6 months treatment (visit 4), Median / Heart rate, change from baseline to 6 months treatment (visit 4), Mean ± SD / Heart rate, change from baseline to 6 months treatment (visit 4), Median / QTc-interval Bazett, change from baseline to 6 months treatment (visit 4), Mean ± SD / QTc-interval Bazett, change from baseline to 6 months treatment (visit 4), Median / QTc-interval Fredericia, change from baseline to 6 months treatment (visit 4), Mean ± SD / QTc-interval Fredericia, change from baseline to 6 months treatment (visit 4), Median: PP data set
Method: At the final clinical visit (at 6 months from S/B visit), a safety assessment including physical examination, ECG, vital signs, body weight, and sampling for clinical safety laboratory tests were performed. Furthermore, the metabolic control (HbA1c) was assessed, as well as C-peptide antibodies and C-peptide levels in plasma. All efficacy variables including SCV, SNAP, MCV, MDL, CMAP, QST were performed (two examinations within 2-14 days). E/I ratio and neurological status were also assessed. All used and unused clinical trial medication was returned by the patient and drug accountability was performed by study staff. The patient diary was reviewed including recording of concomitant medication, AEs, and drug accountability. FIG. 1 summarizes the study procedures and assessments conducted at each time point.

[6] = subcutaneously administered; cited from earlier work
[7] = Low-dose, ITT data set, Infections and infestations
[8] = Low-dose, PP data set, Infections and infestations
[9] = Low-dose, PP data set, Injury poisoning, procedural complications
[10] = Low-dose, PP data set, Investigations

Compound: CC(C)C[C@H](NC(=O)[C@H](C)NC(=O)[C@H](CC(C)C)NC(=O)[C@@H]1CCCN1C(=O)[C@H](CCC(N)=O)NC(=O)[C@H](CC(C)C)NC(=O)[C@H](CO)NC(=O)CNC(=O)[C@H](C)NC(=O)CNC(=O)[C@@H]1CCCN1C(=O)CNC(=O)CNC(=O)CNC(=O)[C@H](CC(C)C)NC(=O)[C@H](CCC(=O)O)NC(=O)[C@@H](NC(=O)[C@H](CCC(N)=O)NC(=O)CNC(=O)[C@@H](NC(=O)[C@H](CCC(N)=O)NC(=O)[C@H](CC(C)C)NC(=O)[C@H](CC(=O)O)NC(=O)[C@H](CCC(=O)O)NC(=O)[C@H](C)NC(=O)[C@@H](N)CCC(=O)O)C(C)C)C(C)C)C(=O)N[C@@H](CCC(=O)O)C(=O)NCC(=O)N[C@@H](CO)C(=O)N[C@@H](CC(C)C)C(=O)N[C@@H](CCC(N)=O)C(=O)O [C-peptide, Recombinant human C-peptide]
- Antibody reactivity to C-peptide (C-peptide antibodies): no or very weak reactivity
- Expected physiological mean plasma concentration [1]: ~1 nmoL/L
- Increase in pre-dosing morning C-peptide plasma level vs baseline ([2]; High-dose C-peptide, n=4): 0.13 ± 0.083 nmol/L
- Increase in pre-dosing morning C-peptide plasma level vs baseline ([2]; Low-dose C-peptide, n=8): 0.045 ± 0.092 nmol/L
- Accumulation following repeated C-peptide dosing ([2]; dose ranges of the study, 4.5 months): likely no significant accumulation
- level at time molar ([2]; human, plasma, sc, during treatment, maximum in the high dose group, read-out: Plasma levels of C-peptide attained): 0.2 to 6 nM
- Changes in clinical laboratory variables [3]: no significant changes in any of the variables
- AEs of severe intensity (S): Sepsis ([4]; High-dose, ITT data set, Infections and infestations): S (1)
- AEs of any severity: Tooth ache ([4]; High-dose, PP data set): 3
- AEs of any severity: Urinary tract infection ([4]; High-dose, PP data set, Infections and infestations): 1
- AEs of any severity: Skin infection ([4]; High-dose, PP data set, Skin and subcutaneous tissue disorders): 2
- AEs of moderate intensity (M): Acute HIV infection [4, 7]: M (1)
- AEs of moderate intensity (M): Borrelia infection [4, 7]: M (1)
- AEs of moderate intensity (M): Herpes zoster [4, 7]: M (1)
- AEs of moderate intensity (M): Skin infection ([4]; Low-dose, ITT data set, Skin and subcutaneous tissue disorders): M (1)
- AEs of any severity: Tooth ache ([4]; Low-dose, PP data set): 2
- AEs of any severity: Acute HIV infection [4, 8]: 1
- AEs of any severity: Borrelia infection [4, 8]: 1
- AEs of any severity: Herpes simplex [4, 8]: 1
- AEs of any severity: Herpeszoster [4, 8]: 1
- AEs of any severity: Influenza [4, 8]: 1
- AEs of any severity: Nasopharyngitis [4, 8]: 31
- AEs of any severity: Otitis [4, 8]: 1
- AEs of any severity: Pharyngitis [4, 8]: 1
- AEs of any severity: Sinusitis [4, 8]: 4
- AEs of any severity: Skin infection [4, 8]: 5
- AEs of any severity: Tonsilitis [4, 8]: 1
- AEs of any severity: Upper respiratory tract infection [4, 8]: 3
- AEs of any severity: Urinary tract infection [4, 8]: 3
- AEs of any severity: Joint sprain ankle [4, 9]: 1
- AEs of any severity: Rib fracture/injury [4, 9]: 1
- AEs of any severity: Skin injury [4, 9]: 2
- AEs of any severity: Elevated serum creatinine [4, 10]: 1
- AEs of any severity: Hepatic enzyme increase [4, 10]: 2
- AEs of any severity: Hyperkalaemia [4, 10]: 1
- AEs of any severity: Weight increased [4, 10]: 1
- Deaths ([4]; during the study): No deaths
- BPd (diastolic blood pressure), change from baseline to 6 months treatment (visit 4), Mean ± SD ([5]; High-dose C-peptide, n = 39): −2.6 ± 8.0 mm Hg
- BPd (diastolic blood pressure), change from baseline to 6 months treatment (visit 4), Median ([5]; High-dose C-peptide, n = 39): −1.0 mm Hg
- BPs (systolic blood pressure), change from baseline to 6 months treatment (visit 4), Mean ± SD ([5]; High-dose C-peptide, n = 39): −8.8 ± 10.0 mm Hg
- BPs (systolic blood pressure), change from baseline to 6 months treatment (visit 4), Median ([5]; High-dose C-peptide, n = 39): −8.0 mm Hg
- Heart rate, change from baseline to 6 months treatment (visit 4), Mean ± SD ([5]; High-dose C-peptide, n = 39): −3.2 ± 10.0 bpm
- Heart rate, change from baseline to 6 months treatment (visit 4), Median ([5]; High-dose C-peptide, n = 39): −4.0 bpm
- QTc-interval Bazett, change from baseline to 6 months treatment (visit 4), Mean ± SD ([5]; High-dose C-peptide, n = 39): -4.5 ± 20.3 ms
- QTc-interval Bazett, change from baseline to 6 months treatment (visit 4), Median ([5]; High-dose C-peptide, n = 39): 0.0 ms
- QTc-interval Fredericia, change from baseline to 6 months treatment (visit 4), Mean ± SD ([5]; High-dose C-peptide, n = 39): -0.5 ± 16.2 ms
- QTc-interval Fredericia, change from baseline to 6 months treatment (visit 4), Median ([5]; High-dose C-peptide, n = 39): 0.0 ms
- Decrease in systolic blood pressure compared to the low-dose C-peptide group ([5]; High-dose C-peptide, p<0.004, not different from placebo): significantly greater decrease
- BPd (diastolic blood pressure), change from baseline to 6 months treatment (visit 4), Mean ± SD ([5]; Low-dose C-peptide, n = 53): −2.7 ± 8.2 mm Hg
- BPd (diastolic blood pressure), change from baseline to 6 months treatment (visit 4), Median ([5]; Low-dose C-peptide, n = 53): −1.0 mm Hg
- BPs (systolic blood pressure), change from baseline to 6 months treatment (visit 4), Mean ± SD ([5]; Low-dose C-peptide, n = 53): −2.1 ± 12.8 mm Hg
- BPs (systolic blood pressure), change from baseline to 6 months treatment (visit 4), Median ([5]; Low-dose C-peptide, n = 53): −1.0 mm Hg
- Heart rate, change from baseline to 6 months treatment (visit 4), Mean ± SD ([5]; Low-dose C-peptide, n = 53): −0.9 ± 8.2 bpm
- Heart rate, change from baseline to 6 months treatment (visit 4), Median ([5]; Low-dose C-peptide, n = 53): −2.0 bpm
- QTc-interval Bazett, change from baseline to 6 months treatment (visit 4), Mean ± SD ([5]; Low-dose C-peptide, n = 53): -0.1 ± 17.5 ms
- QTc-interval Bazett, change from baseline to 6 months treatment (visit 4), Median ([5]; Low-dose C-peptide, n = 53): 0.0 ms
- QTc-interval Fredericia, change from baseline to 6 months treatment (visit 4), Mean ± SD ([5]; Low-dose C-peptide, n = 53): 0.9 ± 14.1 ms
- QTc-interval Fredericia, change from baseline to 6 months treatment (visit 4), Median ([5]; Low-dose C-peptide, n = 53): 1.3 ms
- Changes in heart rate, blood pressure, and QTc ([5]; any of the three treatment groups, 6 months): nor were there any significant changes
- Abnormalities in ECG ([5]; during study medication treatment): no clinically significant abnormalities
- Bioavailability [6]: approximately 80%
